Laboratory results: patent US12479816B2, “20-HETE formation inhibitors” (UNIVERSITY OF PITTSBURGH—OF THE COMMONWEALTH SYSTEM OF …, priority 2019, dated 2025)
Read-outs that look alike come from different tables or passages of the source.

Columns and labels:
[1] = system: 20-HETE formation (CYP4) in HLM; assay: Inhibition of 20-HETE formation at 250 or 500 nM in HLM microsomal incubations; assay type: biochemical, human; conditions: HLM 300 μg/ml, AA 100 μM, 20 min; for HLM % inh. @ 250 nM: 250 nM compound; for HLM % inh. @ 500 nM: 500 nM compound
Method in brief: (§1)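 Microsomes (300 μg/ml) or rCYP4F2 (25 pmol/mL) were incubated with 100 μM arachidonic acid, 1 mM NADPH and test compound in 0.12 M potassium phosphate with 5 mM MgCl2 for 20 min at 37° C. 20-HETE was quantified by UPLC-MS/MS with 20-HETE-d6 internal standard and expressed as percent of vehicle (n=3).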

[2] = system: 20-HETE formation (CYP4) in HLM; assay: IC50 determination, 20-HETE formation in HLM; assay type: biochemical, human; conditions: HLM 300 μg/ml, AA 100 μM, 12 concentrations
Method in brief: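 Human or rat liver microsomes (300 μg/ml) with arachidonic acid 100 μM, NADPH 1 mM, compound at 12 concentrations (0.1 nM-50 μM) in phosphate/MgCl2 buffer, 20 min at 37 °C. 20-HETE quantified by UPLC-MS/MS against d6 internal standard, normalised to vehicle; IC50 by nonlinear regression.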

[3] = HLM stability determination; assay type: in vitro ADME, human; conditions: HLM 500 μg/ml, 1 μM compound, NADPH, relative to 0 min
Experimental: HLM stability determinations shown in Table 3 were obtained as follows. Microsomal incubates contained HLM (500 μg/ml), test compounds (1 μM) and NADPH (1.3 mM) in a 1 ml total volume of microsomal incubation buffer (0.12 M potassium phosphate buffer containing 5 mM magnesium chloride). Reaction was started by adding NADPH to the incubates and was carried out at 37° C. in a shaking water bath for 60 min. At 0, 15, 30, 45, 60 min, a 50 μl aliquot of incubates was taken out and reaction was stopped by adding aliquot into 200 μl ice-cold acetonitrile. After centrifugation at 14000×g for 5 min, 200 μl supernatant was taken out for UPLC-MS/MS analysis as described above. Values at 0 min were used as corresponding control for test compounds. Varapamil, metoprolol, and warfarin, categorized as fast, moderate and slow metabolism, were used as positive control. Incubates without NADPH group served as negative control.

[4] = system: 20-HETE formation (CYP4) in RKM; assay: Inhibition of 20-HETE formation at 250 or 500 nM in RKM microsomal incubations; assay type: biochemical, rat; conditions: RKM 300 μg/ml; for RKM % inh. @ 250 nM: 250 nM compound; for RKM % inh. @ 500 nM: 500 nM compound
Method in brief: as §1

[5] = system: 20-HETE formation (CYP4) in RLM; assay: Inhibition of 20-HETE formation at 250 or 500 nM in RLM microsomal incubations; assay type: biochemical, rat; conditions: RLM 300 μg/ml; for RLM % inh. @ 250 nM: 250 nM compound; for RLM % inh. @ 500 nM: 500 nM compound
Method in brief: as §1

[6] = Turbidometric solubility determination; assay type: physicochemical; conditions: PBS with 1% DMSO, aqueous buffer, kinetic from dmso stock, room temperature
Method in brief: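 Precipitation was detected as a significant rise in absorbance at 620 nm over background, and this point set the maximum solubility. Compound was tested in PBS with 1% DMSO at final concentrations from 0 to 600 μM, in triplicate, after 2 h of shaking at room temperature.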

Structure (SMILES)	HLM % inh. @ 250 nM [1] [%]	HLM % inh. @ 500 nM [1] [%]	IC50 [2] [µM]	Stability HLM % @ 30 min [3] [%]	RKM % inh. @ 250 nM [4] [%]	RLM % inh. @ 250 nM [5] [%]	solubility at 2 h ([6]; OD620, read-out: Max Solub) [µM]	solubility at 2 h ([6]; read-out: Solubility_ug/mL) [µg/mL]	RKM % inh. @ 500 nM [4] [%]	RLM % inh. @ 500 nM [5] [%]
c1ccc(CC2CCN(c3cn[nH]c3)CC2)cc1 [Compound 3, 4-Benzyl-1-(1H-pyrazol-4-yl)piperidine]	–	77.30	0.05	85	–	–	505	122	0.00	2.40
COc1ccc(C2CCN(c3ccn[nH]3)CC2)cc1 [Compound 19, 4-(4-Methoxyphenyl)-1-(1H-pyrazol-5-yl)piperidine]	–	72.30	0.14	89	–	–	106	27.3	0.00	31.80
c1ccc(C2CCN(c3ccn[nH]3)CC2)cc1 [Compound 54, 4-Phenyl-1-(1H-pyrazol-5-yl)piperidine]	31.60	47.40	0.44	91	0.00	12.00	> 600	137	–	–
Clc1ccc(CC2CCN(c3cn[nH]c3)CC2)cc1 [Compound 93, 4-(4-Chlorobenzyl)-1-(1H-pyrazol-4-yl)piperidine]	–	93.03	0.017	85	–	–	117	–	–	64.30

Second part, the molecule after the results:

HLM % inh. @ 250 nM [1] [%]	HLM % inh. @ 500 nM [1] [%]	IC50 [2] [µM]	Stability HLM % @ 30 min [3] [%]	RKM % inh. @ 250 nM [4] [%]	RLM % inh. @ 250 nM [5] [%]	solubility at 2 h ([6]; OD620, read-out: Max Solub) [µM]	solubility at 2 h ([6]; read-out: Solubility_ug/mL) [µg/mL]	RKM % inh. @ 500 nM [4] [%]	RLM % inh. @ 500 nM [5] [%]	Structure (SMILES)
64.29	78.80	0.19	100	18.00	27.40	121	28	–	–	c1ccc(C2CCN(c3cn[nH]c3)CC2)cc1 [Compound 1, 4-Phenyl-1-(1H-pyrazol-4-yl)piperidine]
–	73.10	0.07	92	–	–	35	9	4.90	25.90	COc1ccc(C2CCN(c3cn[nH]c3)CC2)cc1 [Compound 20, 4-(4-Methoxyphenyl)-1-(1H-pyrazol-4-yl)piperidine]
–	75.00	0.1	–	–	–	> 600	179	43.00	52.00	CC(=O)N(C)c1ccc(C2CCN(c3cn[nH]c3)CC2)cc1 [Compound 28, N-(4-(1-(1H-Pyrazol-4-yl)piperidin-4-yl)phenyl)-N-methylacetamide]
–	80.00	0.11	–	–	–	> 600	145	36.00	44.00	Cc1cccc(C2CCN(c3cn[nH]c3)CC2)c1 [Compound 34, 1-(1H-Pyrazol-4-yl)-4-(m-tolyl)piperidine]
–	91.6	0.0542	91	–	–	> 600	–	–	49.60	O=C1CCCN1Cc1ccc(C2CCN(c3cn[nH]c3)CC2)cc1 [Compound 83, 1-(4-(1-(1H-Pyrazol-4-yl)piperidin-4-yl)benzyl)pyrrolidin-2-one]
–	76.1	0.054	95	–	–	74	–	–	42.90	O=C1CCCN1c1ccc(C2CCN(c3cn[nH]c3)CC2)cc1 [Compound 100, 1-(4-(1-(1H-Pyrazol-4-yl)piperidin-4-yl)phenyl)pyrrolidin-2-one]
